From US9012505B2, “Antimicrobial compounds and uses thereof” (priority 2010, dated 2015)
Entries after “also recorded” stand apart in the source; their conditions may differ.

Legend:
[1] = test system: Xanthomonas campestris strain 8004dF; test: Biofilm assay (Xcc biofilm dispersal, cell aggregates by phase contrast microscopy); type: cell-based; conditions: YEB medium
Description: For analysis of biofilm formation, a single colony of Xanthomonas campestris strain 8004dF (He et al., 2006) was inoculated and grown overnight at 28° C. in 5 ml of YEB medium. The bacterial cells in culture were visualized with a phase contrast microscope (Olympus BX50) and photographs were taken with an Olympus DP70 digital camera.
Given its structural similarity to DSF (Wang et al., 2004), which is known to regulate biofilm dispersal (Dow et al., 2003; He et al., 2006), MDEA was tested for its ability to promote Xcc biofilm dispersion. The Xcc DSF mutant ΔrpfF, which formed extensive cell aggregates (biofilm) in YEB medium (FIG. 2a), was used in this assay.

[2] = test system: PexsCEBA-lacZ (T3SS reporter strain); test: T3SS reporter PexsCEBA-lacZ β-galactosidase activity; type: cell-based, Pseudomonas aeruginosa; conditions: LB medium with 10 mM NTA, OD600 about 1.5
From the text: The promoter of exsCEBA was amplified by PCR using the primer pairs pC-F/pC-R ((5′-[…] (SEQ ID NO: 3)/5′-ggggcgcctcctaaagctc (SEQ ID NO: 4)), and cloned into the integration vector mini-CTX-lacZ (Zhou et al., 2007; Hoang et al., 2000; Becher and Schweizer, 2000). The construct was introduced into E. coli S17-1(λpir) and then integrated into the chromosome of P. aeruginosa as described previously (Hoang et al., 2000). The P. aeruginosa transconjugants were then selected on LB agar plates containing 100 μg/ml tetracycline and used as the T3SS reporter strain.
For determination of the inhibitory activity against T3SS, MDEA was added to the LB medium supplemented with 10 mM NTA before inoculation of the T3SS reporter strain. After incubation at 37° C. till OD600 reached about 1.5, the bacterial cells were harvested by centrifugation to measure the β-galactosidase activities following the method previously described (Jeffrey, 1992).
Type III secretion system (T3SS) is a major virulence determinant conserved in many Gram-negative bacterial pathogens. To test the ability of MDEA on regulation of T3SS gene expression in Pseudomonas aeruginosa, the T3SS reporter construct PexsCEBA-lacZ (Zhou et al., 2007) was used. The promoter PexsCEBA directs the expression of the T3SS master regulator ExsA, which positively controls the expression of all T3SS genes in P. aeruginosa (Yahr and Wolfgang, 2006; Frank, 1997).

exsC = test: Semi-quantitative RT-PCR of T3SS gene expression; type: cell-based, Pseudomonas aeruginosa; conditions: MDEA treatment, concentration not given
Description: Bacteria were grown in LB medium supplemented with 10 mM NTA at 37° C. with shaking (250 rpm) overnight were diluted to an OD600 of 0.05 in fresh LB medium and grown under the same conditions to an OD600 of 1.5. RNA samples were isolated using the RNeasy mini kit according to the manufacturer's instructions (Qiagen). The concentration and purity of RNA were determined by spectrometry and agarose gel electrophoresis. RT-PCR analysis was performed using the One-step RT-PCR kit according to the manufacturer's instructions (Qiagen) with the primer pairs RT-C—F/RT-C—R ((5′-[…] (SEQ ID NO: 5), 5′-[…] (SEQ ID NO: 6)).
The effect of MDEA on inhibition of T3SS was further analyzed by semi-quantitative RT-PCR. […] The data are consistent with the results based on the T3SS reporter (FIG. 3a).

[3] = test system: C. albicans strain SC5314; test: Candida albicans germ tube formation (morphological transition); type: cell-based; conditions: 37° C., 3 h, solvent control about 70%
Description: C. albicans strain SC5314 was incubated at 28° C. for overnight with shaking in the GMM medium consisting of 6.7 g of Bacto yeast nitrogen base (Difco) and 0.2% glucose (pH 7.2). C. albicans cells proliferate in yeast form under these conditions. The yeast cells were then diluted 20-fold in fresh GMM medium with or without MDEA. The cells were induced for 3 h at 37° C. Visualization and quantification of germ tube formation were performed using a phase contrast microscope (Olympus BX50) by counting about 400 C. albicans cells. The experiment was repeated twice, and the imaging was done with an Olympus DP70 digital camera.
Candida albicans is a fungal pathogen responsible for various forms of candiasis ranging from mucosal damages to serious systemic infections. It normally exists as a yeast but can form germ tubes (mycelia) under certain environmental conditions including human body temperature and serum. This morphological transition ability is critical for the fungal pathogen to establish infections. Mutants defective in morphological transitions are avirulent and unable to cause infections (Lo et al., 1997; Braun et al., 2000; Saville et al., 2003; Zheng et al., 2003). […] MDEA represents another structurally different unsaturated fatty acid. To determine its potential inhibitory activity MDEA was added to medium at various concentrations before inoculation of the fungal yeast cells, using methanol as a solvent control. After incubation at 37° C. for 3 h, about 70% of C. albicans cells in solvent control formed germ tubes (FIG. 4). In contrast, less than 30% and 5% of yeast cells could germinate in the presence of 0.5 or 5 μM of MDEA (FIG. 4). When the concentration was increased to 25 μM, the germ tube formation was reduced to 0.17% (FIG. 4).

CC(C)CCCCC=CC/C=C\C(=O)O [MDEA, cis-11-methyldodeca-2,5-dienoic acid]
Effect on cell aggregates (biofilm) of Xcc DSF-deficient mutant ([1]; 1 μM MDEA): inhibited 8004dF biofilm formation; also recorded: eliminated most of the cell aggregates
Effect on cell aggregates (biofilm) of Xcc DSF-deficient mutant ([1]; 5 μM MDEA): inhibited 8004dF biofilm formation; also recorded: all the cell aggregates disappeared
reduction of PexsCEBA-lacZ activity ([2]; 5 μM MDEA): 64.1%
reduction of PexsCEBA-lacZ activity ([2]; 10 μM MDEA): 68.5%
reduction of PexsCEBA-lacZ activity ([2]; 25 μM MDEA): 74.4%
reduction in transcriptional expression of exsC (exsC): about 60%
yeast cells that germinate (germ tube formation) ([3]; 0.5 μM MDEA): less than 30%
yeast cells that germinate (germ tube formation) ([3]; 5 μM MDEA): < 5%
germ tube formation ([3]; 25 μM MDEA): 0.17%
